Data on twelve molecules can be found in patent US11286242B2 (priority 2018, dated 2022).

Assay [1] deals with Colletotrichum capsici. The assay can be described thus: Colletotrichum capsici (anthracnose) radial mycelial growth on Potato Dextrose Agar. As to conditions: Colletotrichum truncatum, 168 h, 25° C., 60% relative humidity, seven days, read-out: control compared to the untreated check. The format is cell-based. The procedure:
Example 5: Colletotrichum capsici (Anthracnose)
Compounds were dissolved in 0.3% DMSO & then added to Potato Dextrose Agar medium just prior to dispensing it into petri dishes. 5 mL medium with compound in the desired concentration was dispensed into 60 mm sterile petri-plates. After solidification, each plate was seeded with 5 mm size mycelial disc taken form periphery of actively growing virulent culture plate. Plates were incubated in growth chambers at 25° C. temperature and 60% relative humidity for seven days and radial growth was measured.

Assay [2] relates to Pyricularia oryzae. The assay can be described thus: microbe, parasite or virus in culture. The format is cell-based. Particulars: 168 h, read-out: control compared to the untreated check.
Assay [3] relates to Botrytis cinerea. Put plainly: Botrytis cinerea (gray mold) radial mycelial growth on Potato Dextrose Agar. The format is cell-based. Particulars: 168 h, 22° C., 90% relative humidity, seven days, read-out: control compared to the untreated check. The procedure: Example 3: Botrytis cinerea (Gray Mold)
Compounds were dissolved in 0.3% DMSO & then added to Potato Dextrose Agar medium just prior to dispensing it into petri dishes. 5 mL medium with compound in the desired concentration was dispensed into 60 mm sterile petri-plates. After solidification, each plate was seeded with 5 mm size mycelial disc taken form periphery of actively growing virulent culture plate. Plates were incubated in growth chambers at 22° C. temperature and 90% relative humidity for seven days and radial growth was measured.

Assay [4] relates to Phakopsora pachyrhizi. Put plainly: Phakopsora pachyrhizi test in soybean, preventive spray. The format is in vivo. As to conditions: preventive spray on soybean plants, inoculated one day after treatment, greenhouse 25° C., 90% relative humidity, read-out: control (efficacy, disease severity rating) compared to the untreated check. Summed up:
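Greenhouse soybean plants were sprayed preventively at the stated rates, with compound in 2% DMSO/acetone diluted in water. They were inoculated one day later with a 2.1×10^6 P. pachyrhizi spore suspension and held at 25° C and 90% RH. Severity (0–100%) was rated 3, 7, 10 and 15 days after application, giving % control versus untreated plants.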

Assay [5] concerns Alternaria solani. Put plainly: Alternaria solani (early blight of tomato/potato) radial mycelial growth on Potato Dextrose Agar. The format is cell-based. As to conditions: 168 h, Potato Dextrose Agar, 25° C., 60% relative humidity, seven days, read-out: control compared to the untreated check. The procedure:
Example 4: Alternaria solani (Early Blight of Tomato/Potato)
Compounds were dissolved in 0.3% DMSO & then added to Potato Dextrose Agar medium just prior to dispensing it into petri dishes. 5 mL medium with compound in the desired concentration was dispensed into 60 mm sterile petri-plates. After solidification each plate was seeded with 5 mm size mycelial disc taken form periphery of actively growing virulent culture plate. Plates were incubated in growth chambers at 25° C. temperature and 60% relative humidity for seven days and radial growth was measured.

In assay [6] the test system is Septoria lycopersici. Put plainly: Septoria lycopersici (leaf spot of tomato) radial mycelial growth on Potato Dextrose Agar. The format is cell-based. As to conditions: 300 ppm, 25° C., 70% relative humidity, seven days. The procedure: Example 6: Septoria lycopersici (Leaf Spot of Tomato)
Compounds were dissolved in 0.3% DMSO & then added to Potato Dextrose Agar medium just prior to dispensing it into petri dishes. 5 mL medium with compound in the desired concentration was dispensed into 60 mm sterile petri-plates. After solidification, each plate was seeded with 5 mm size mycelial disc taken form periphery of actively growing virulent culture plate. Plates were incubated in growth chambers at 25° C. temperature and 70% relative humidity for seven days and radial growth was measured.

With `CS(=O)(=NC(=O)C1CC1)c1ccc(-c2noc(C(F)(F)F)n2)cc1` (centres unmarked) [Compound 181, N-(methyl(oxo)(4-(5-(trifluoromethyl)-1,2,4-oxadiazol-3-yl)phenyl)-λ^6-sulfaneylidene)cyclopropanecarboxamide], the inhibition of growth at 300 ppm in assay [1] and in assay [2] was > 70% throughout.

For the molecule `O=S1(=Nc2ccc(-c3noc(C(F)(F)F)n3)cc2)CCOCC1` [Compound 133, 4-((4-(5-(trifluoromethyl)-1,2,4-oxadiazol-3-yl)phenyl)imino)-1,4λ^6-oxathiane 4-oxide], the inhibition of growth at 300 ppm in assay [3], in assay [1] and in assay [2] was > 70% in each case.

Regarding `CS(=O)(=Nc1ccc(-c2noc(C(F)(F)F)n2)cc1)c1cccc(F)c1` (centres unmarked) [Compound 14, (3-fluorophenyl)(methyl)((4-(5-(trifluoromethyl)-1,2,4-oxadiazol-3-yl)phenyl)imino)-λ^6-sulfanone], the pest or weed control at 500 ppm in assay [4] is > 90%. The inhibition of growth at 300 ppm in assay [3], in assay [5] and in assay [2] was > 70% in each case.

With `CS(=O)(=Nc1ccc(-c2noc(C(F)(F)F)n2)cc1)c1ccc(F)cc1` (centres unmarked) [Compound 17, (4-fluorophenyl)(methyl)((4-(5-(trifluoromethyl)-1,2,4-oxadiazol-3-yl)phenyl)imino)-λ^6-sulfanone], in assay [4], the pest or weed control at 500 ppm is > 90%. For the same molecule, the inhibition of growth at 300 ppm in assay [3], in assay [5], in assay [1] and in assay [2] was > 70% each time.

Regarding `CS(=O)(=NCc1ccc(-c2noc(C(F)(F)F)n2)cc1)c1ccc(Br)cc1` (centres unmarked) [Compound 22, (4-bromophenyl)(methyl)((4-(5-(trifluoromethyl)-1,2,4-oxadiazol-3-yl)benzyl)imino)-λ^6-sulfanone], the pest or weed control at 500 ppm in assay [4] was > 90%. Also, the inhibition of growth at 300 ppm in assay [1] and in assay [2] was > 70% throughout.

As for `CS(=O)(=Nc1ccc(-c2noc(C(F)(F)F)n2)cc1)c1ccccc1` (centres unmarked) [Compound 18, methyl(phenyl)((4-(5-(trifluoromethyl)-1,2,4-oxadiazol-3-yl)phenyl)imino)-λ^6-sulfanone], in assay [4], the pest or weed control at 500 ppm was > 90%. Besides, the inhibition of growth at 300 ppm in assay [5], in assay [1] and in assay [2] was > 70% each time.

Turning to `COc1ccc(S(C)(=O)=NCc2ccc(-c3noc(C(F)(F)F)n3)cc2)cc1` (centres unmarked) [Compound 23, (4-methoxyphenyl)(methyl)((4-(5-(trifluoromethyl)-1,2,4-oxadiazol-3-yl)benzyl)imino)-λ^6-sulfanone], the pest or weed control at 500 ppm in assay [4] was > 90%. For the same molecule, the inhibition of growth at 300 ppm in assay [3], in assay [5], in assay [1] and in assay [2] was > 70% each time.

Consider `O=S1(=Nc2ccc(-c3noc(C(F)(F)F)n3)cc2)CCCCC1` [Compound 134, 1-((4-(5-(trifluoromethyl)-1,2,4-oxadiazol-3-yl)phenyl)imino)hexahydro-1λ^6-thiopyran 1-oxide], for which, in assay [6], the “control compared to the untreated check” value is recorded as “more than 70%”. Further, the inhibition of growth at 300 ppm in assay [2] was > 70%.

As to `O=C(NS(=O)(=O)c1ccc(Cl)cc1Cl)c1ccc(-c2noc(C(F)(F)F)n2)cc1` [Compound 156, N-((2,4-dichlorophenyl)sulfonyl)-4-(5-(trifluoromethyl)-1,2,4-oxadiazol-3-yl)benzamide], the inhibition of growth at 300 ppm in assay [3] and in assay [1] was > 70% throughout.

For the molecule `CS(=O)(=Nc1ccc(-c2noc(C(F)(F)F)n2)cc1)c1ccncc1` (centres unmarked) [Compound 15, methyl(pyridin-4-yl)((4-(5-(trifluoromethyl)-1,2,4-oxadiazol-3-yl)phenyl)imino)-λ^6-sulfanone], the pest or weed control at 500 ppm in assay [4] was > 90%. For the same molecule, the inhibition of growth at 300 ppm in assay [3], in assay [5], in assay [1] and in assay [2] was > 70% each time.

Take `CS(=O)(=Nc1ccc(-c2noc(C(F)(F)F)n2)cc1)c1ccc(Cl)cc1` (centres unmarked) [Compound 13, (4-chlorophenyl)(methyl)((4-(5-(trifluoromethyl)-1,2,4-oxadiazol-3-yl)phenyl)imino)-λ^6-sulfanone]: the inhibition of growth at 300 ppm in assay [5], in assay [1] and in assay [2] was > 70% in each case.

`CS(=O)(=NC(=O)c1ccc(-c2noc(C(F)(F)F)n2)cc1)c1nccs1` (centres unmarked) [Compound 48, N-(methyl(oxo)(thiazol-2-yl)-λ^6-sulfaneylidene)-4-(5-(trifluoromethyl)-1,2,4-oxadiazol-3-yl)benzamide]: in assay [4], the pest or weed control at 500 ppm is > 90%. Besides, the inhibition of growth at 300 ppm in assay [3] and in assay [5] was > 70% in each case.
